The values that follow come from ChEMBL document CHEMBL4325859, “Research advances on anticancer activities of matrine and its derivatives: An updated overview” (Eur J Med Chem, 2019).

Test [1] deals with HepG2. Description: Antiproliferative activity against human HepG2 cells at 1 mg/ml after 72 hrs by MTT assay relative to control. The class given is functional. A general note: Formazan colour is commonly taken as a measure of viable cells.
Test [2] relates to HepG2. Briefly: Antiproliferative activity against human HepG2 cells at 0.8 mg/ml after 48 hrs relative to control. It is filed as functional.
Test [3] deals with KYSE-150 cell line. Description: Antiproliferative activity against human KYSE-150 cells assessed as cell viability at 0.5 mg/ml after 24 hrs by MTT assay relative to control. It is filed as functional. Conditions: KYSE-150, 24 h, read-out: Activity.
The test system of test [4] is HT-29. Description: Growth inhibition of human HT-29 cells at 1 mg/ml by MTT assay relative to control. Conditions: read-out: GI. The class given is functional.
For test [5], the system named is SAOS-2. Description: Growth inhibition of human Saos2 cells after 48 hrs by MTT assay. It is filed as functional, cell-based. The conditions noted are these: SAOS-2, 48 h.
Test [6] has as its system HOS. Description: Growth inhibition of human HOS cells at 3.2 mg/ml after 48 hrs by MTT assay relative to control. The class given is functional. Conditions: read-out: GI.
Test [7] in a line: Growth inhibition of human GRC1 cells at 0.8 g/L after 48 hrs by MTT assay relative to control. The conditions noted are these: read-out: GI. It is filed as functional.
The nature of test [8]: Growth inhibition of human GRC1 cells at 1.5 g/L after 48 hrs by MTT assay relative to control. It is filed as functional. The conditions noted are these: read-out: GI.
In test [9] the test system is HK-2. Description: Antiproliferative activity against human HK2 cells after 48 hrs by CCK8 assay. The class given is functional, cell-based. Conditions: HK-2, 48 h.

For orientation: IC50 means the concentration at which inhibition is half-maximal. Low readings indicate higher potency, high ones lower potency. `O=C1CCC[C@@H]2[C@H]3CCCN4CCC[C@@H](CN12)[C@@H]34` [MATRINE]: the Activity is listed as 18.25% in [1] and 44.03% in test [2]. The viability at 500 µg/mL in test [3] came to 82.2%. Also, the inhibition of growth at 1000 µg/mL in test [4] came to 35.9%. Moreover, the values for the IC50 in test [5] and in test [9] were 4.27 mM and 4.71 mM, respectively. Also, the inhibition of growth at 3200 µg/mL in [6] stood at 57%. Further, in [7], the inhibition of growth at 800 µg/mL was found to be 23.1%. Also, the inhibition of growth at 1500 µg/mL in test [8] was found to be 32%.
